Patent publication US20070276049A1 (priority 2003, published 2007)
Where two headings read alike, the source gives them in different places.

Key:
rabbit RBCs [1] = format: cell-based
human RBCs = format: cell-based
HIV-1 = format: cell-based
rabbit RBCs [2] = assay: Streptolysin O-induced hemolysis on RBC-containing agar plates; format: cell-based; conditions: GML 10 μg/ml in agar; Group A Streptococci stabbed into agar
Procedure: GML (10 μg/ml) was incorporated into culture plates containing solid agar and rabbit RBCs suspended in the agar. The effect of GML on. streptolysin O-induced hemolysis was tested by stabbing the Group A Streptococci into the agar so as to permit the anaerobic growth of the bacteria beneath the surface of the agar and thereby allow streptolysin O to function.

[3] = tested on: Streptococcus pyogenes T18P; format: cell-based, S. pyogenes; conditions: GML 10 and 20 ug/ml
rabbit RBCs [4] = tested on: rabbit RBCs

Molecule | Absorbance at 410 nm (rabbit RBCs [1]) | lysis of RBCs (rabbit RBCs [1]) | lysis of human RBCs by the B. anthracis exotoxin (human RBCs; GML 1 μg/ml) | lysis of human RBCs by the B. anthracis exotoxin (human RBCs; GML 10 μg/ml) | cells expressing p24 (HIV-1) | total number of cells in the samples (HIV-1) | streptolysin O-induced hemolysis of RBCs (rabbit RBCs [2]) | number of bacteria in the epithelial cells [3] | lysis of RBCs by hemolysin (rabbit RBCs [1]) | RBC lysis by GML alone (rabbit RBCs [4]) | lysis of rabbit RBCs by the B. anthracis exotoxin (rabbit RBCs [4]; GML 5 μg/ml) | lysis of rabbit RBCs by the B. anthracis exotoxin (rabbit RBCs [4]; GML 10 μg/ml)
α-hemolysin | 0.97 | complete cell lysis |  |  |  |  |  |  |  |  |  | 
CCCCCCCCCCCC(=O)OCC(O)CO (stereo not drawn) [GML, glycerol monolaurate] |  |  | partially inhibited | completely inhibited | rare and no | significantly less | completely prevented | dramatic decreases | completely prevented | did not cause RBC lysis | partially inhibited | almost completely inhibited
